Data on one compound can be found in patent US5440012A, “Calcitonin and method for the preparation and use thereof” (Sumitomo Metal Industries, Ltd., priority 1991, dated 1995).

Assay [1] relates to concentration of calcium in the serum. The assay is described as follows: Blood calcium-decreasing activity in rats (serum calcium, parallel line assay). In kind it is in vivo, Male Wistar rats. As for the experimental part:
The physiological activities of the pure naturally-occurring stingray calcitonin extracted from the ultimobranchial gland of a stingray and those of synthetic stingray calcitonin obtained in the above-described manner were determined according to the technique of Homma et al (J. Biochem. 100: 459-467, 1986).
Male Wistar rats weighing 90-110 grams (10 animals in each group) which had fasted for 24 hours prior to the experiment were intravenously injected with a standard solution of salmon calcitonin or eel calcitonin or a solution of the synthetic stingray calcitonin (produced in Example 2) each dissolved in an aqueous 0.9% sodium chloride solution (pH 4.6) containing 0.1% bovine serum albumin at a dose of 1 pmol or 10 pmol per animal. Exactly one hour after the administration, a blood sample was collected from the artery of each test animal and the concentration of calcium in the serum was determined by atomic absorption spectroscopy. Based on the values for serum calcium concentration in rats of the groups in which one of the standard solutions was administered at a dose of 1 pmol or 10 pmol per animal and those in rats of the group in which the stingray calcitonin of the present invention was administered at the same dose, the relative titer of the stingray calcitonin was determined by the standard statistical procedures for parallel line assays. […]

In assay [2] the test system is grown cartilage cell culture of rabbit costal cartilage. Nature of the assay: Alkaline phosphatase activity per protein in rabbit costal cartilage cell culture (chondrocyte differentiation). Format: cell-based. To be noted: 10 μl of 10^-12 mol/ml calcitonin solution added on fourth and sixth days, 9 days incubation; control about 88,150. As for the experimental part:
When their physiological activities on cartilage cells or chondrocytes were determined according to the technique of Bessey et al (J. Biol. Chem. 164: 321-329, 1964) and that of Lowry et al (J. Biol. Chem. 193: 265-275, 1951), a strong cell differentiation-promoting activity was noted. […]
After incubation for 9 days, the cell layer (1) was recovered and the alkaline phosphatase activity in each well was determined by the method of Bessey et al (J. Biol. Chem. 164: 321-329, 1946) using p-nitrophenylphosphoric acid as a substrate.
The amount of protein in each well was also determined by assaying the recovered cell layer (1) in accordance with the method of Lowry et al (J. Biol. Chem. 193: 265-275, 1951) using bovine serum albumin as a standard substance.
The value for alkaline phosphatase activity per unit weight of protein was calculated from the values for alkaline phosphatase activity and amount of protein determined as above. The calculated value of the control was about 88,150 nmol/30 min/mg-protein. […]

Positions of bridges follow the written chain, without caps; N, C: chain ends. Residues, ends and D or L forms follow the SMILES beside them.

Turning to `CC[C@H](C)[C@H](NC(=O)[C@H](CC(N)=O)NC(=O)[C@H](CCC(N)=O)NC(=O)[C@H](CC(C)C)NC(=O)[C@H](CCCCN)NC(=O)[C@H](Cc1c[nH]cn1)NC(=O)[C@H](CC(C)C)NC(=O)[C@H](CCC(N)=O)NC(=O)[C@H](CCC(N)=O)NC(=O)[C@H](CO)NC(=O)[C@H](CC(C)C)NC(=O)[C@H](CCCCN)NC(=O)CNC(=O)[C@@H](NC(=O)[C@@H](NC(=O)[C@@H]1CSSC[C@H](N)C(=O)N[C@@H]([C@@H](C)O)C(=O)N[C@@H](CO)C(=O)N[C@@H](CC(C)C)C(=O)N[C@@H](CO)C(=O)N[C@@H]([C@@H](C)O)C(=O)N1)C(C)C)C(C)C)C(=O)N[C@@H](CCC(N)=O)C(=O)N[C@@H](CCCNC(=N)N)C(=O)N[C@H](C(=O)N[C@@H](CC(=O)O)C(=O)N[C@H](C(=O)NCC(=O)N[C@@H](C)C(=O)N[C@@H](C)C(=O)N[C@H](C(=O)N1CCC[C@H]1C(N)=O)[C@@H](C)O)C(C)C)[C@@H](C)O` [calcitonin of the present invention] (H-CTSLSTCVVGKLSQQLHKLQNIQRTDVGAATP-NH2; disulfide 1-7), the “titer (blood calcium-decreasing activity)” value in assay [1] (rats, intravenous, 1 pmol or 10 pmol per animal, serum calcium one hour after administration, salmon and eel calcitonin used as standard substances) is recorded as “about 3770 IU/mg”. Moreover, the “blood calcium-decreasing activity (in words)” value in assay [1] (technique of Homma et al) was “strong blood calcium-decreasing activity”. For the same compound, the “alkaline phosphatase activity per unit weight of protein” value in assay [2] is listed as “about 106,000 nmol/30 min/mg-protein”.
